Results from patent US12590062B2, “PD-1/PD-L1 inhibitors” (Gilead Sciences, Inc., priority 2017, dated 2026).

Legend:
[1] = biological target: PD-1/PD-L1 (Homo sapiens, UniProt Q9NZQ7); test: PD-1/PD-L1 biochemical protein-protein interaction assay (ALPHA); type: binding; details: 0.3 nM His tagged PD-L1, 2.5 nM biotinylated Fc-PD-1, 60 minutes at 25° C., read-out: IC50 PD-L1-PD-1 Alpha IC50-mono PD-L1-fcP-D1
Method in brief: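 ALPHA bead proximity assay of extracellular domains: 0.3 nM His-PD-L1 with 2.5 nM biotinylated Fc-PD-1 in 25 mM Hepes pH 7.4, 150 mM NaCl, 3.4 mM EDTA, 0.005% Tween 20, 0.01% BSA, 60 min at 25 °C. Anti-His acceptor and streptavidin donor beads added; IC50 from four-parameter fit of signal loss.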

[2] = biological target: T1, PD-1/PD-L1 interaction (Homo sapiens, UniProt Q9NZQ7); test: PD-1/PD-L1 NFAT reporter co-culture assay; type: cell-based; details: Jurkat PD-1 NFAT-luciferase cells co-cultured with aAPC-PD-L1 CHO cells, 6 hrs at 37° C.; read-out: EC50 NFAT Luciferase
T1 construct: expressed in transfected cells; host or cells: CHO cells (aAPC-PD-L1) co-cultured with Jurkat cells overexpressing PD-1 and an NFAT-luciferase reporter
Method in brief: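 Compounds are scored by restoration of NFAT-luciferase signal in PD-1-expressing Jurkat cells cultured 6 h at 37 °C on CHO cells presenting anti-CD3 and PD-L1; EC50 values derive from four-parameter curve fitting.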

T1 sequence (Q9NZQ7 19-290): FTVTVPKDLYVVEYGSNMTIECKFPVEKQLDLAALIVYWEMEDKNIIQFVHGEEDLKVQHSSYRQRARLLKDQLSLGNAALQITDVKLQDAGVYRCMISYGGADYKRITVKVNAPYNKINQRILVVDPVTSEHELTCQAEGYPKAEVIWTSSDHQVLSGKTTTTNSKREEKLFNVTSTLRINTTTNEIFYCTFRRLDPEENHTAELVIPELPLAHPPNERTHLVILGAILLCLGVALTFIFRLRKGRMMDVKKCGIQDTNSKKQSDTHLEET
Chain of PD-1/PD-L1 (Q9NZQ7 19-238 limits assumed): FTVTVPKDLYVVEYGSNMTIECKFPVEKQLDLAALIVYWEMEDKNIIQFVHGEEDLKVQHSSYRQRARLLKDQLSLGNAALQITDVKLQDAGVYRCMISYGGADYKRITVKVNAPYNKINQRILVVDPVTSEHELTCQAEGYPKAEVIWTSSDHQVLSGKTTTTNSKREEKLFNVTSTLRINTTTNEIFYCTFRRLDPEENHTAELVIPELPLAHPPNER

IC50 [1] | EC50 [2] | Structure (SMILES)
0.0081 µM | 1.12 µM | COc1nc(/C=C/c2cccc(-c3cccc(/C=C/c4nc(OC)c(CNC[C@@H](O)CC(=O)O)cc4Cl)c3C)c2C)c(Cl)cc1CNC[C@@H](O)CC(=O)O [Example 239, (3S,3′S)-4,4′-(((((1E,1′E)-(2,2′-dimethyl-[1,1′-biphenyl]-3,3′-diyl)bis(ethene-2,1-diyl))bis(5-chloro-2-methoxypyridine-6,3-diyl))bis(methylene))bis(azanediyl))bis(3-hydroxybutanoic acid)]
0.001 µM | 1.2 µM | Cc1cc(OCc2cccc(-c3cccc(COc4cc(C)c(CNC[C@@H](O)CC(=O)O)c(OCc5cncc(C#N)c5)c4)c3C)c2C)cc(OCc2cncc(C#N)c2)c1CNC[C@@H](O)CC(=O)O [Example 246, (3S,3′S)-4,4′-((((((2,2′-dimethyl-[1,1′-biphenyl]-3,3′-diyl)bis(methylene))bis(oxy))bis(2-((5-cyanopyridin-3-yl)methoxy)-6-methyl-4,1-phenylene))bis(methylene))bis(azanediyl))bis(3-hydroxybutanoic acid)]
0.0636 µM | 7.49 µM | CC(=O)NCCNCc1ccc(OCc2cccc(-c3cccc(COc4ccc(CNCCNC(C)=O)c(-c5cncc(C#N)c5)c4)c3C)c2C)cc1-c1cncc(C#N)c1 [Example 250, N,N′-(((((((2,2′-dimethyl-[1,1′-biphenyl]-3,3′-diyl)bis(methylene))bis(oxy))bis(2-(5-cyanopyridin-3-yl)-4,1-phenylene))bis(methylene))bis(azanediyl))bis(ethane-2,1-diyl))diacetamide]
0.002 µM | 25.9 µM | Cc1c(COc2ccc(CNC[C@@H](O)CC(=O)O)c(OCc3cncc(C#N)c3)n2)cccc1-c1cccc(COc2ccc(CNC[C@@H](O)CC(=O)O)c(=O)n2Cc2cncc(C#N)c2)c1C [Example 251, (S)-4-(((6-((3′-(((5-((((S)-3-carboxy-2-hydroxypropyl)amino)methyl)-1-((5-cyanopyridin-3-yl)methyl)-6-oxo-1,6-dihydropyridin-2-yl)oxy)methyl)-2,2′-dimethyl-[1,1′-biphenyl]-3-yl)methoxy)-2-((5-cyanopyridin-3-yl)methoxy)pyridin-3-yl)methyl)amino)-3-hydroxybutanoic acid]
0.0003 µM | 0.333 µM | Cc1c(COc2nc(OCc3cncc(C#N)c3)c(CNC[C@H](O)CC(=O)O)cc2Br)cccc1-c1cccc(COc2nc(OCc3cncc(C#N)c3)c(CNC[C@H](O)CC(=O)O)cc2Br)c1C [Example 252, (3R,3′R)-4,4′-((((((2,2′-dimethyl-[1,1′-biphenyl]-3,3′-diyl)bis(methylene))bis(oxy))bis(5-bromo-2-((5-cyanopyridin-3-yl)methoxy)pyridine-6,3-diyl))bis(methylene))bis(azanediyl))bis(3-hydroxybutanoic acid)]
0.0046 µM | 0.304 µM | COc1ccc(COc2nc(OCc3cccc(-c4cccc(COc5nc(OCc6ccc(OC)nc6)c(CNC[C@@H](O)CC(=O)O)cc5Br)c4C)c3C)c(Br)cc2CNC[C@@H](O)CC(=O)O)cn1 [Example 253, (3S,3′S)-4,4′-((((((2,2′-dimethyl-[1,1′-biphenyl]-3,3′-diyl)bis(methylene))bis(oxy))bis(5-bromo-2-((6-methoxypyridin-3-yl)methoxy)pyridine-6,3-diyl))bis(methylene))bis(azanediyl))bis(3-hydroxybutanoic acid)]
0.0208 µM | 0.689 µM | Cc1c(COc2cc(OCc3cncc(C#N)c3)c(CNCCO)cc2Br)cccc1-c1cccc(COc2cc(OCc3cncc(C#N)c3)c(CNCCO)cc2Br)c1C [Example 254, 5,5′-((((((2,2′-dimethyl-[1,1′-biphenyl]-3,3′-diyl)bis(methylene))bis(oxy))bis(4-bromo-6-(((2-hydroxyethyl)amino)methyl)-3,1-phenylene))bis(oxy))bis(methylene))dinicotinonitrile]
